Reference: patent US11272841B2, “Indicator fluids, systems, and methods for assessing movement of substances within, to or from a cerebrospinal fluid, brain or spinal cord compartment of a cranio-spinal cavity of a human” (BRAINWIDESOLUTIONS AS, priority 2017, dated 2022)
Marks after values point to notes of the source that are not given here.

Assay: Repeated standardized T1-weighted MRI: signal units (SU) in ROIs of CSF, venous space and brain tissue after intrathecal gadobutrol, iNPH versus reference patients (Tables 2-4, FIG. 14b, 16)
Format: in vivo, human
Description: The different features of Aspect 2 are based on novel in-vivo observations in humans. […] In the following paragraphs, these novel observations in humans are commented on in more detail. In these studies, the MRI contrast agent gadobutrol served as indicator fluid and MRI SUs were indication signals. MRI T1 weighted signal units were measured when gadobutrol was present within CSF after having been administered to the CSF compartment, and were compared with MR images having identical sequence parameter settings and with no gadobutrol present in CSF. […] With a MW of 605 Da, gadobutrol is a rather large molecule in comparison to the MW of water (H2O) molecule, which is 18 Da. Clearance of gadobutrol is then indicative of clearance of other substances with similar properties.
We explored both movement of the contrast agent within, to, and from the cranio-spinal cavity, including CSF, brain and spinal cord compartment, and from the cranio-spinal cavity to extra-cranial LNs. With gadobutrol present within CSF, blood level concentrations of contrast agents were determined at various time point. The repeated MRI acquisitions made it possible to create clearance curves for one or more pixels, defined by ROIs. ROIs were placed within CSF compartments, brain and spinal cord tissue compartments, and extracranial LN tissue compartments. By means of MRI, we could create graphic curves illustrating clearance of substances (clearance illustrating curves) for defined ROIs built up of a defied number of pixels for each individual. For details of said clearance curves, see FIG. 7. The establishment of clearance curves was dependent on repeated MRI acquisitions over a long period.
Using MRI SUs, we created clearance illustrating curves, see FIG. 7, for the individual patients as well as for groups of individuals. Tables 2-4 illustrate various examples of parameter values of the clearance illustrating curves.
Table 2, as discussed with FIG. 2, illustrates how maximum increase in SUs varies between individuals and patient groups. Tables 3 and 4 compare such clearance curve parameters from two patient groups, namely iNPH and reference (i.e. control) patients, illustrating inter-individual differences and differences between patient groups. These patient groups represent no limitation of the invention as it may be used in various patient groups such as Alzheimer's and dementia in general, brain tumor (e.g. astrocytoma), multiple sclerosis and inflammatory brain disease, stroke (brain infarction or bleeds), sleep disturbances, neurodegenerative disease, CSF circulation disorders, traumatic brain injury, neurometabolic diseases, glaucoma, chronic headache and migraine, and in assessment of ageing in general.
Even though perfect match of ROIs of repeated images may be difficult to obtain, the second aspect of the invention is facilitated by that image acquisition parameters at repeated MRI acquisitions are kept fixed and thus standardized. […] Further, to make best possible alignments of pixels, methods for alignment of repeated MRI acquisitions need to be implemented. Methods for alignment of repeated MRI images belong to prior art. Aids to improve alignment may incorporate landmark locations such as the cranial vault, pineal gland, and ventricular system.
Each image acquisition lasted 6 minutes and 29 seconds.

[1] = Brain parenchyma: Frontal horn, Reference
[2] = Brain parenchyma: Frontal horn, iNPH
[3] = Brain parenchyma: Inferior frontal gyrus (IFG), Reference
[4] = Brain parenchyma: Inferior frontal gyrus (IFG), iNPH
[5] = Brain parenchyma: Pons, Reference
[6] = Brain parenchyma: Precentral gyrus, Reference
[7] = Brain parenchyma: Precentral gyrus, iNPH
[8] = Brain parenchyma: Thalamus, Reference
[9] = Brain parenchyma: Thalamus, iNPH
[10] = CSF space: 3rd Ventricle, Reference
[11] = CSF space: 4th Ventricle, Reference
[12] = CSF space: Foramen Magnum, Reference
[13] = CSF space: Foramen Magnum, iNPH
[14] = CSF space: Lateral Ventricle, Reference

Enhancement coefficient (SU/min) [1]: 0.05 SU/min
Max increase (SU) [1]: 7.9 ± 7.9 SU
Time to peak [1]: 1109.8 ± 585.6 min
Enhancement coefficient (SU/min) [2]: 0.04 SU/min
Max increase (SU) [2]: 48.5 ± 32.8^b SU
Time to peak [2]: 1349.3 ± 350.9 min
Enhancement coefficient (SU/min) [3]: 0.02 SU/min
Max increase (SU) [3]: 23.8 ± 20.9 SU
Time to peak [3]: 1421.3 ± 53.1 min
Enhancement coefficient (SU/min) [4]: 0.03 SU/min
Max increase (SU) [4]: 39.1 ± 25.3 SU
Time to peak [4]: 1358.0 min
Enhancement coefficient (SU/min) [5]: 0.08 SU/min
Time to peak [5]: 929.4 ± 676.9 min
Enhancement coefficient (SU/min) (Brain parenchyma: Pons, iNPH): 0.03 SU/min
Time to peak (Brain parenchyma: Pons, iNPH): 1090.0 ± 602.3 min
Enhancement coefficient (SU/min) [6]: 0.03 SU/min
Max increase (SU) [6]: 7.8 ± 11.2 SU
Time to peak [6]: 742.8 ± 727.9 min
Enhancement coefficient (SU/min) [7]: 0.04 SU/min
Max increase (SU) [7]: 9.0 ± 8.3 SU
Time to peak [7]: 900.0 ± 686.4 min
Enhancement coefficient (SU/min) [8]: 0.01 SU/min
Max increase (SU) [8]: 9.0 ± 7.1 SU
Time to peak [8]: 1288.4 ± 386.3 min
Enhancement coefficient (SU/min) [9]: 0.01 SU/min
Max increase (SU) [9]: 13.0 ± 6.8 SU
Time to peak [9]: 1261.7 ± 462.6 min
Clearance coefficient (SU/min) [10]: −0.09 ± 0.08 SU/min
Clearance time [10]: 1135.3 ± 74.2 min
Enhancement coefficient (SU/min) [10]: 0.4 SU/min
Max increase (SU) [10]: 115.1 ± 103.8 SU
Max reduction (SU) [10]: −103.7 ± 83.9 SU
Time to peak [10]: 253.8 ± 133.2 min
Clearance coefficient (SU/min) (CSF space: 3rd Ventricle, iNPH): −0.10 ± 0.07 SU/min
Clearance time (CSF space: 3rd Ventricle, iNPH): 1234.3 ± 116.2 min
Enhancement coefficient (SU/min) (CSF space: 3rd Ventricle, iNPH): 1.4 SU/min
Max increase (SU) (CSF space: 3rd Ventricle, iNPH): 243.6 ± 136.9^a SU
Max reduction (SU) (CSF space: 3rd Ventricle, iNPH): −114.4 ± 76.8 SU
Time to peak (CSF space: 3rd Ventricle, iNPH): 615.3 ± 587.5 min
Clearance coefficient (SU/min) [11]: −0.18 ± 0.08 SU/min
Clearance time [11]: 1287.6 ± 105.9 min
Enhancement coefficient (SU/min) [11]: 6.3 SU/min
Max increase (SU) [11]: 236.0 ± 142.9 SU
Max reduction (SU) [11]: −232.6 ± 103.7 SU
Time to peak [11]: 123.4 ± 98.1 min
Clearance coefficient (SU/min) (CSF space: 4th Ventricle, iNPH): −0.19 ± 0.1 SU/min
Clearance time (CSF space: 4th Ventricle, iNPH): 1234.4 ± 109.1 min
Enhancement coefficient (SU/min) (CSF space: 4th Ventricle, iNPH): 5.6 SU/min
Max increase (SU) (CSF space: 4th Ventricle, iNPH): 386.5 ± 138.2^a SU
Max reduction (SU) (CSF space: 4th Ventricle, iNPH): −231.6 ± 128.1 SU
Time to peak (CSF space: 4th Ventricle, iNPH): 286.7 ± 322.9 min
Clearance coefficient (SU/min) [12]: −0.28 ± 0.08 SU/min
Clearance time [12]: 1294.4 ± 154.5 min
Enhancement coefficient (SU/min) [12]: 17.7 SU/min
Max increase (SU) [12]: 426.0 ± 123.0 SU
Max reduction (SU) [12]: −358.1 ± 117.7 SU
Time to peak [12]: 129.4 ± 156.7 min
Clearance coefficient (SU/min) [13]: −0.16 ± 0.07^b SU/min
Clearance time [13]: 1264.3 ± 116.1 min
Enhancement coefficient (SU/min) [13]: 5.9 SU/min
Max increase (SU) [13]: 398.3 ± 108.0 SU
Max reduction (SU) [13]: −206.7 ± 90.8^b SU
Time to peak [13]: 174.5 ± 94.2 min
Clearance coefficient (SU/min) [14]: −0.07 ± 0.01 SU/min
Clearance time [14]: 1098.0 ± 12.5 min
Enhancement coefficient (SU/min) [14]: 0.13 SU/min
Max increase (SU) [14]: 42.5 ± 51.9 SU
Max reduction (SU) [14]: −72.3 ± 11.9 SU
Time to peak [14]: 402.6 ± 446.1 min
SMILES: O=C([O-])CN1CCN(CC(=O)[O-])CCN([C@H](CO)[C@H](O)CO)CCN(CC(=O)[O-])CC1.[Gd+3] (racemic) [gadobutrol]
